# Results taken from ChEMBL document CHEMBL1128975, “The effect of fluorine substitution on the antimalarial activity of tebuquine” (Bioorg Med Chem Lett, 1996).
# Assays:
# Plasmodium falciparum [1] = experiment: Antimalarial activity against Plasmodium falciparum K1; assay type: functional, organism-based
# Plasmodium falciparum [2] = experiment: Antimalarial activity against Plasmodium falciparum 3D7; assay type: functional, organism-based
Compound,IC50 (Plasmodium falciparum [1]) [nM],IC50 (Plasmodium falciparum [2]) [nM]
CC(C)(C)NCc1cc(Nc2ccnc3cc(Cl)ccc23)cc(-c2ccc(Cl)cc2)c1F [FLOUROTEBUQUINE],74,58
CC(C)(C)NCc1cc(Nc2ccnc3cc(Cl)ccc23)cc(-c2ccc(Cl)cc2)c1O [TEBUQUINE],21,18
